# In patent publication US20240424115A1, “LONG-ACTING INTERLEUKIN-15 RECEPTOR AGONISTS AND RELATED IMMUNOTHERAPEUTIC COMPOSITIONS AND METHODS” (Nektar Therapeutics, priority 2017, published 2024):
# Columns and labels:
# CT-26 cells = assay: CT-26 lung metastasis model
# Procedure: At day 0, 6-8 week-old female Balb/c mice were inoculated with 1×10^5 mouse CT-26 cells by tail vein injection. On day 1, post 24 h of CT-26 cells being administered, mice were divided into ten groups. […] Each group was assigned one intervention as follows: vehicle, phosphate buffered saline (Group A); native IL-15 alone (Group B); Conjugate 2 at a dose of 0.03 mg/kg (Group C); Conjugate 2 at a dose of 0.1 mg/kg (Group D); Conjugate 2 at a dose of 0.3 mg/kg (Group E); Conjugate 2 at a dose of 1.0 mg/kg (Group F); Conjugate 2 at a dose of 3.0 mg/kg (Group G); for Conjugate 1: vehicle, phosphate buffered saline (Group H); Conjugate 1 at a dose of 0.03 mg/kg (Group I) and Conjugate 1 at a dose of 0.3 mg/kg (Group J). Animals were dosed at days 1, 5, and 10.
# Post 13 days from the date of CT-26 tumor cells administration, mice were anesthetized, and blood and spleen cells were collected for further analysis of immunophenotype markers, while lungs were fixed for 24-48 h in Bouins solution containing picric acid and formaldehyde.
# The number of lung tumor nodules were counted under a dissection per each lung and mean of lung nodules for each group was determined. The statistical significance was also obtained between the vehicle group vs intervention groups using unpaired students t test.
# Balb/c mice received tail vein injection of 1×10^5 CT-26 colorectal carcinoma cells. The following day, mice (n=9/group) were treated weekly, twice, with Conjugate 1 (0.03 or 0.3 mg/kg) or vehicle control. Five days after the second injection, mice were humanely sacrificed and lung nodules were counted.
# CT-26 mice (n=7-11/group) were injected with anti-asialo GM1 to deplete NK cells or two different controls (lgG or PBS), then injected with 1×10^5 CT-26 tumor cells. Mice were then treated with Conjugate 2 at 0.3 mg/kg dosed on days 1, 5 and 10 post tumor cell injection or vehicle control. Mice were sacrificed and lung nodules were counted three days after the last day of treatment.
# CD8 T cells = assay: Immunophenotypic markers in blood and spleen on Day 13 of the CT-26 lung metastasis study; format: in vivo, Balb/c mice
# Procedure: Blood and spleenocytes were analyzed on Day 13 for the changes in the immunophenotypic markers using flow cytometry and marker antibodies conjugated with various fluorochromes. Conjugate 2 administered at 0.3, 1, and 3 mg/kg induced a dose-dependent increase of CD8 T cells 1.5, 2.5, and 3.3-fold versus vehicle in blood, respectively. Similar observations were made in spleen with increases of 1.3, 1.7, and 2.2-fold at 0.3, 1, and 3 mg/kg dose levels versus vehicle.
# [1] = system: NK cells, CD8 T cells, CD4 T cells; assay: In vivo PD study in non-human primates: lymphocyte cell numbers and proliferation; set-up: species or system cynomolgus monkeys; details: cyno, single i.v. 500 μg/kg
# Procedure: In the study, cynomolgus monkeys, one female and one male, were administered 500 μg/kg of Conjugate 2 intravenously. A series of blood samples were taken from each animal before treatment (day-6 and -1) and at multiple intervals following single dose treatment for assessment by flow cytometry of lymphocyte cell numbers (NK cells, CD8 T-cells, etc.) and activation.
# NK cell counts were determined to assess the ability of exemplary Conjugate 2 to induce sustained NK cell proliferation in non-human primates; results are shown in FIGS. 16A and 16B. NK cells and their proliferation in blood from cynomolgus monkey were identified by flow cytometry. Acquisition and analysis of NK cells (CD45+ CD3− CD16+) and their proliferation status (CD45+CD3−CD16+ Ki67+) were conducted using BD FACS DIVA software. Absolute values for NK cells and proliferating NK cells were used to calculate % Ki67 positivity within the NK population. Pre and post-treatment values were plotted using Prism.
# CD8 T cell counts were also determined as illustrated in FIG. 17 for each animal from pre-dose to 14 days post-administration. Specifically, CD8 T cells were defined as CD45+CD3+CD4−CD8+. Blood from the monkeys was also subject to immunophenotyping as previously described. In monkey, CD8 T cells increased in a sustained manner, an effect lasting for at least 10 days. This plot further exemplifies the ability of an exemplary long acting IL-15 receptor agonist, Conjugate 2, to induce proliferation and sustained increases in numbers of CD8 T-cells post-administration.
# In monkey, CD8 TEM cells were defined as CD45+CD3+CD4−CD8+CD45Ra−CD197− and CD8 Tcm were defined as CD45+CD3+CD4−CD8+CD45Ra−CD197+. Immunophenotyping was conducted by flow cytometry with sample acquisition on DIVA software and data analysis on Flowjo software. Graphs were plotted using Prism. […] The figures indicate that both CD8 effector and central memory T cell populations proliferate in response to exemplary Conjugate 2.
# In this study, cynomolgus monkeys (cyno), one female and one male, were each intravenously administered a single dose of Conjugate 1 (0.1 mg/kg). A series of blood samples were taken from each animal over a 14-day time course and subjected to flow cytometry analysis of various lymphocytes (CD8 T cells, Ki-67 percent positivity within total CD8, CD8 central memory T cells (TCM) and CD8 effector memory T cells (Tem), NK cells and Ki-67 percent positivity of NK cells).
# (§1) Cynomolgus monkeys (n=3-4 males), were administered a single intravenous injection of Conjugate 1 at 0.003, 0.01, 0.1 mg/kg or a vehicle control. Blood samples were collected at the indicated time points pre and post dose (−5, −2, 1, 2, 3, 4, 5, 6, 7, 10, 14, 17 days) and subjected to flow cytometric analysis to examine pharmacodynamic effects within lymphocyte populations. Proliferation (% Ki-67) and JAK/STAT signaling (% pSTAT5) for NK cells, CD8 T cells, and CD4 T cells were examined, with the results shown in FIGS. 45A-C and FIGS. 46A-C, respectively.
# In cynomolgus monkey, CD8 naïve and memory subpopulations were defined by CD45Ra, CD197 and CD95. […] Within the CD8 Tem, […] and Tscm populations, Conjugate 1 induced robust % Ki-67 expression in a dose dependent manner with detectable increases in proliferation marker positivity starting as early as day 2, reaching a maximum at day 5 and returning to baseline between days 10-14. The Ki-67 expression and kinetics within the CD8 populations support the sustained increase in CD8 T cell numbers shown in Example 27 and FIGS. 47A-D.
# [2] = Single dose PK study in rats (plasma concentration); format: in vivo; details: rats, single i.v. 0.3, 0.15, 0.075 mg/kg or s.c. 0.15 mg/kg
# Procedure: Following administration, blood was collected at days 1-7 post administration (with multiple samples collected over the first 24 hours following administration). […]
# CD4, CD8, and NK cells [3] = assay: In vivo IL-15 signaling (STAT5 phosphorylation in lymphocytes) in non-human primates; set-up: species or system cynomolgus monkeys; details: cyno, single i.v. 0.5 mg/kg
# Procedure: In the study, cynomolgus monkeys (cyno), one female and one male, were each intravenously administered a single dose of Conjugate 2 (0.5 mg/kg). A series of blood samples were taken from each animal both prior to treatment (day-6 and-1) and at multiple intervals following treatment for assessment by flow cytometry of STAT5 phosphorylation in various types of lymphocytes (CD4, CD8, and NK cells). Results are provided in FIGS. 9A (CD4), 9B (CD8), and 9C (NK).
# as §1
# [4] = Single dose PK study in mice (plasma concentration); details: C57BL/6 mice, single i.v. 0.3 mg/kg
# Procedure: C57BL/6 mice (n=3/group) were administered a single intravenous dose of IL-15 (control) at 0.3 mg/kg) or of Conjugate 2 at a dose of 0.3 mg/kg. Following administration, blood samples were collected at various time points post administration (24 hours, 48 hours, 78 hours, 96 hours). […] Finally, at each time point, plasma concentration of drug was determined.
# For PK analysis, Conjugate 1 was administered as a single intravenous dose at 0.3 mg/kg in balb/c mice (n=3). Following administration, mice were humanely sacrificed and plasma was collected 24, 48, 72, 96, 120 and 144 hours post treatment. From a separate study, mice were administered a single intravenous dose of IL-15 (0.5 mg/kg). Samples from these mice were collected at the indicated time points within 6 hours of treatment.
# Balb/c mice (n=3/group) were administered a single intravenous dose of IL-15 (500 ug/kg) or of Conjugate 1 at 10, 30, 100, 300 and 1000 μg/kg. Blood samples were collected at the indicated time points post administration (conjugate 1:24, 48, 72, 96, 120, 144, 240 hours; IL-15 control: 0.03, 0.08, 0.25, 0.5, 1, 2, 4, 6, 8, hours) and plasma concentration of drug was determined.
# CD4, CD8, and NK cells [5] = assay: In vivo IL-15 signaling (STAT5 phosphorylation in lymphocytes) in mice; details: C57BL/6 mice, single i.v. 0.3 mg/kg
# Excerpt: Conventional approaches, such as those involving radiolabeling a compound, administering the compound in vivo, and determining its clearance, can be used to assess whether a compound proposed to be a long-acting, IL-15 R agonist is “long-acting” (i.e., has a clearance that is longer than that of IL-15 administered in the same in vivo system). For the purposes herein, the long acting nature of a long-acting IL-15 R agonist may be, and is typically determined using flow cytometry to measure STAT5 phosphorylation in lymphocytes at various time points after administration of the agonist to be evaluated in mice. As a reference, the signal is lost by around 24 hours with IL-15, but is sustained for a period greater than that for a long-acting IL-15 agonist.
# Mice were dosed as described in Example 6 above to assess in-vivo signaling as assessed by degree of STAT5 phosphorylation. Degree of STAT5 phosphorylation in various lymphocytes (CD4, CD8, and NK cells) was assessed by staining whole blood for leukocyte surface markers and pSTAT5, followed by measurement by flow cytometry. Results are shown in FIGS. 8A and 8 B for IL-15 and for Conjugate 2, respectively.
# [PK methods previously described herein].
# STAT5 phosphorylation in CD4 T cells was determined by using a CD3+CD4+CD8-pSTAT5+ marker combination. FIG. 43 is a plot of pSTAT5 phosphorylation percent positivity within CD4 T cells over time (at 0.25, 1, 6, 24, 48, 72, 96 and 120 hours post administration) at a dose of 0.03 mg/kg (blue, solid squares) or 0.3 mg/kg (orange, solid circles). The vehicle over time (black) and pre-dose (open circles) levels are also shown.
# IL-15Rα:Fc [6] = assay: SPR (BIAcore), compared with unmodified IL-15
# IL-15Rα:Fc [7] = assay: SPR (BIAcore), IL-15Rα:Fc captured by immobilised goat anti-human Fc, test article injected in 3-fold dilutions from 10 µM
# IL-15Rα:Fc [8] = assay: SPR (BIAcore), IL-15Rα:Fc captured by immobilised goat anti-human Fc, KD from kd/ka
# IL-15Rα:Fc, sequence (Q13261 31-205): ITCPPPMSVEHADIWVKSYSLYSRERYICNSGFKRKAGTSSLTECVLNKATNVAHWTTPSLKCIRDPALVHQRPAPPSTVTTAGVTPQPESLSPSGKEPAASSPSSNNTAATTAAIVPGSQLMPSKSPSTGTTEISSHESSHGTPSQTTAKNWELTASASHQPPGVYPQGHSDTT
substance,measurement,setting,value
N-(2-methoxyPEG-ethyl)-7-(4-((2-methoxyPEG-ethyl) amino)-4-oxobutyl)-9-ethyl-9 H-fluorene-4-carboxamide carbamate-IL-15 [Conjugate 2],efficacy (lung nodule inhibition) after NK cell depletion,"CT-26 cells; 0.3 mg/kg days 1, 5, 10, anti-asialo GM1",abolished when mice lacked NK cells
same,reduction in lung metastases in comparison to vehicle,"CT-26 cells; Example 13, i.v. days 1, 5, 10, dose not stated",65%
same,increase of Bcl-2+MFI in CD8,CD8 T cells; blood and spleen,≤ 1.5 fold
same,increase of CD8 T cells versus vehicle,"CD8 T cells; blood, 0.3 mg/kg",1.5 fold
same,increase of CD8 T cells versus vehicle,"CD8 T cells; blood, 1 mg/kg",2.5 fold
same,increase of CD8 T cells versus vehicle,"CD8 T cells; blood, 3 mg/kg",3.3 fold
same,CD8 T cell proliferation (Ki-67) change compared to vehicle,"CD8 T cells; blood, high dose 3 mg/kg",5.3 fold
same,CD8 T cell proliferation (Ki-67) change compared to vehicle,"CD8 T cells; blood, low dose 0.3 mg/kg",1.7 fold
same,increase of CD8 T cells versus vehicle,"CD8 T cells; spleen, 0.3 mg/kg",1.3 fold
same,increase of CD8 T cells versus vehicle,"CD8 T cells; spleen, 1 mg/kg",1.7 fold
same,increase of CD8 T cells versus vehicle,"CD8 T cells; spleen, 3 mg/kg",2.2 fold
same,CD8 T cell proliferation (Ki-67) change compared to vehicle,"CD8 T cells; spleen, high dose 3 mg/kg",6.9 fold
same,CD8 T cell proliferation (Ki-67) change compared to vehicle,"CD8 T cells; spleen, low dose 0.3 mg/kg",2.5 fold
same,CD8 T cell proliferation (Ki-67) change compared to vehicle,"CD8 T cells; spleen, mid dose 1 mg/kg",5.7 fold
same,CD8 TEM and TCM cell counts,[1],induces a significant and sustained increase in CD8 effector and central memory T cell populations
same,"NK cell proliferation (Ki67, cell counts)",[1],effective to induce sustained NK cell proliferation
same,duration of CD8 T cell increase,[1],at least 10 days
same,exposure to drug,[2],sustained and dose-proportional exposure to drug
same,return of STAT5 phosphorylation to near pre-dose levels,"CD4, CD8, and NK cells [3]",5 to 10 days
same,T1/2,[4],20 to 30 h
same,time with measurable concentrations in plasma,[4],greater than 1 week
same,duration of in-vivo STAT5 phosphorylation activity in NK and CD8 cells,"CD4, CD8, and NK cells [5]",> 72 h
mono-mPEG-SBA40K-IL-15 (Conjugate 1) (from UniProt P40933 49-162) (ligand),percent of the alpha receptor affinity of IL-15 retained,IL-15Rα:Fc [6],80%
same,koff,IL-15Rα:Fc [7],0.000103 s⁻¹
same,kon,IL-15Rα:Fc [7],492000 M⁻¹ s⁻¹
same,Kd,IL-15Rα:Fc [8],0.209 nM
